Data from PMC13502167, “Ampyrone is a direct agonist of human tyrosinase and a potential therapeutic for hypopigmentation disorders” (JCI Insight, 2026).
Substitutions are numbered along the chain they refer to. Where two headings read alike, the source gives them in different places.

How the values were obtained:
[1] = biological target: T1, human tyrosinase (hTYR^WT) (Homo sapiens, UniProt P14679); experiment: biochemical
T1 construct: gene TYR
T1 sequence (P14679 19-469): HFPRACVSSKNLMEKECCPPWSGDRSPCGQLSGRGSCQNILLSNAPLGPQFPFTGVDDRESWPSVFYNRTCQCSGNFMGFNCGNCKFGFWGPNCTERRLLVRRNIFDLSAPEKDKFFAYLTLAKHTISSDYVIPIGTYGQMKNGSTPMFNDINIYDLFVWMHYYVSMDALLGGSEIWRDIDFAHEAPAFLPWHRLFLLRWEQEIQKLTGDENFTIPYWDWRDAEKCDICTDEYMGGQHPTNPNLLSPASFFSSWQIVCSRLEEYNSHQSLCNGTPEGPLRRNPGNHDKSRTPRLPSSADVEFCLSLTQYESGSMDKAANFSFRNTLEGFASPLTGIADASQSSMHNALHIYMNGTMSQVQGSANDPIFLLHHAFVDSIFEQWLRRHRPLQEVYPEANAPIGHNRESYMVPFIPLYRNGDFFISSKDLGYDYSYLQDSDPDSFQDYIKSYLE

[2] = biological target: T2, human tyrosinase (hTYR^P406L) (Homo sapiens, UniProt P14679, P406L); experiment: activation of diphenol oxidase and monophenolase activity of purified enzyme; assay type: biochemical
T2 construct: gene TYR; recombinant intramelanosomal domain, P406L variant, His-tag
T2 sequence (P14679 19-469 P406L): T1 sequence (P14679 19-469) with P388L

[3] = biological target: T1, human tyrosinase (hTYR^WT); experiment: activation of diphenol oxidase and monophenolase activity of purified enzyme; urea denaturation; assay type: biochemical

Row | SMILES | IC50 ([1]; read-out: IC50) [µM] | also measured
1 | Oc1ccc(Nc2ccccc2)cc1 [4-anilinophenol] | 3.2 | –
2 | Cc1c(N)c(=O)n(-c2ccccc2)n1C [ampyrone, 4-Amino-2,3-dimethyl-1-phenyl-3-pyrazol-5-one] | – | EC50 [2]: 3570 µM; EC50 [3]: 670 µM
3 | CN(C)c1ccc(N=NS(=O)(=O)O)cc1 [fenaminosulf] | 8.12 | –
4 | COc1ccc(-c2cc(=S)ss2)cc1 [anethole trithione] | 1.45 | –
5 | Nc1nc2nc[nH]c2c(=S)[nH]1 [6-thioguanine] | 540 | –
6 | Oc1ccc(C2=Cc3ccc(O)cc3OC2)cc1 [idronoxil] | – | IC50 [1]: 29.1 µM
7 | O=c1cc(-c2ccc(O)c(O)c2)oc2ccccc12 [3’,4’-dihydroxyflavone] | 9.22 | –
